Assay results reported in patent US10227344B2, “CK2 inhibitors, compositions and methods thereof” (Polaris Pharmaceuticals, Inc., priority 2016, dated 2019).
Structures can show the parent of a compound that is named as a salt.

Biological target: purified CK2α enzyme (Homo sapiens, UniProt P68400)
Experiment: CK2 Protein Kinase Inhibition Assay (coupled PK/LDH assay)
Type: biochemical
Conditions: CK2 enzyme 25 nM, 100 μM ATP, 37° C., Morrison equation
Description: A coupled PK (pyruvate kinase)/LDH (lactate dehydrogenase) assay was used to measure compounds' ability to inhibit purified CK2α enzyme.
The ADP product of kinase CK2a is the cofactor for PK. Phospho(enol)pyruvate (PEP) PEP is metabolized by pyruvate kinase to yield pyruvate, which is the substrate for LDH.
Serially diluted compounds were pre-incubated for 10 min at 37° C. with and 1.5 mM […] peptide substrate, 6 U/ml PK and 10 U/ml LDH (purchased from Sigma-Aldrich), 100 μM ATP, 1.2 mM NADH, 4 mM PEP in the reaction buffer (50 mM Tris (pH 8.25), 0.1 M NaCl, 10 mM magnesium acetate). The reaction was initiated by the addition of an equal volume of purified CK2 enzyme (final concentration 25 nM) diluted in the reaction buffer. Absorbance at 340 nm was measured overtime (for 30 min) at 37° C.; as NADH was converted to NAD+ the absorbance decreases. Absorbance decrease rate (per min) was plotted against the compound concentration and Ki is determined by GraphPad Prism using Morrison equation. All data points were performed in triplicate and each compound was tested in at least two separate experiments.
To this end, K, values of less than 2.5 nM are labelled as “+++”, from 2.5 nM to 10 nM are labelled as “++”, and greater than 10 nM are labelled as “+”.

Chain of purified CK2α enzyme (P68400 whole entry): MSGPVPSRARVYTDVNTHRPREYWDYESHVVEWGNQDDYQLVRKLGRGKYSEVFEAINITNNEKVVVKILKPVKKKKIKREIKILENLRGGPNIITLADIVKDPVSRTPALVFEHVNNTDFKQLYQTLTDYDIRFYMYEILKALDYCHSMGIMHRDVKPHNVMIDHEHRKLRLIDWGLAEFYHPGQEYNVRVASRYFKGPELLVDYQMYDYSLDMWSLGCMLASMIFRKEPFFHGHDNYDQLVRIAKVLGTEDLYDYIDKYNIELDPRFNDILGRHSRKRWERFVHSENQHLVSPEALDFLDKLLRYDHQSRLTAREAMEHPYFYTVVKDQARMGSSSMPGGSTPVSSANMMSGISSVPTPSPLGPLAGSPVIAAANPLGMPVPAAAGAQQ

Compound | Ki [nM]
C[S+]([O-])Cc1cc(Nc2cc(Nc3cccnc3)n3ncc(C#N)c3n2)ccc1C1CC1 (racemic) [Example 55, (±)-5-((4-Cyclopropyl-3-((methylsulfinyl)methyl)phenyl)amino)-7-(pyridin-3-ylamino)pyrazolo[1,5-a]pyrimidine-3-carbonitrile] | < 2.5
C[S+]([O-])Cc1cc(Nc2cc(Nc3ccc(N)nc3)n3ncc(C#N)c3n2)ccc1C1CC1 (racemic) [Example 56, (±)-7-((6-Aminopyridin-3-yl)amino)-5-((4-cyclopropyl-3-((methylsulfinyl)methyl)phenyl)amino)pyrazolo[1,5-a]pyrimidine-3-carbonitrile] | < 2.5
C[S+]([O-])Cc1cc(Nc2cc(Nc3ccc(N)cn3)n3ncc(C#N)c3n2)ccc1C1CC1 (racemic) [Example 57, (±)-7-((5-Aminopyridin-2-yl)amino)-5-((4-cyclopropyl-3-((methylsulfinyl)methyl)phenyl)amino)pyrazolo[1,5-a]pyrimidine-3-carbonitrile] | < 2.5
C[S+]([O-])Cc1cc(Nc2cc(NC3CC3)n3ncc(C#N)c3n2)ccc1C1CCCNC1 (racemic) [Example 61, (±)-7-(Cyclopropylamino)-5-((3-((methylsulfinyl)methyl)-4-((R,S)-piperidin-3-yl)phenyl)amino)pyrazolo[1,5-a]pyrimidine-3-carbonitrile mono trifluoroacetic acid salt] | 2.5 to 10
C[S+]([O-])Cc1cc(Nc2cc(Nc3ccc(N)cn3)n3ncc(C#N)c3n2)ccc1N1CC[C@H](N)C1 (mixture of isomers) [Example 68, (±)-7-((5-Aminopyridin-2-yl)amino)-5-((4-((S)-3-aminopyrrolidin-1-yl)-3-((methylsulfinyl)methyl)phenyl)amino)pyrazolo[1,5-a]pyrimidine-3-carbonitrile] | < 2.5
CN(C)Cc1ccc(Nc2cc(Nc3ccc(C4CC4)c(C[S+](C)[O-])c3)nc3c(C#N)cnn23)nc1 (racemic) [Example 69, (±)-5-((4-Cyclopropyl-3-((methylsulfinyl)methyl)phenyl)amino)-7-((5-((dimethylamino)methyl)pyridin-2-yl)amino)pyrazolo[1,5-a]pyrimidine-3-carbonitrile] | < 2.5
CS(=O)(=O)Cc1cc(Nc2cc(NC3CC3)n3ncc(C#N)c3n2)ccc1Cl [Example 2, 5-((4-Chloro-3-((methylsulfonyl)methyl)phenyl)amino)-7-(cyclopropylamino)pyrazolo[1,5-a]pyrimidine-3-carbonitrile] | < 2.5
CS(=O)(=O)Cc1cc(Nc2cc(NC3CC3)n3ncc(C#N)c3n2)ccc1C#N [Example 9, 5-((4-Cyano-3-((methylsulfonyl)methyl)phenyl)amino)-7-(cyclopropylamino)pyrazolo[1,5-a]pyrimidine-3-carbonitrile] | < 2.5
CN(CCN)c1ccc(Nc2cc(NC3CC3)n3ncc(C#N)c3n2)cc1CS(C)(=O)=O [Example 10, 5-((4-((2-Aminoethyl)(methyl)amino)-3-((methylsulfonyl)methyl)phenyl)amino)-7-(cyclopropylamino)pyrazolo[1,5-a]pyrimidine-3-carbonitrile mono trifluoroacetic acid salt] | < 2.5
CS(=O)(=O)Cc1cc(Nc2cc(NC3CC3)n3ncc(C#N)c3n2)ccc1CCN [Example 11, 5-((4-(2-Aminoethyl)-3-((methylsulfonyl)methyl)phenyl)amino)-7-(cyclopropylamino)pyrazolo[1,5-a]pyrimidine-3-carbonitrile mono trifluoroacetic acid salt] | < 2.5
CS(=O)(=O)Cc1cc(Nc2cc(NC3CC3)n3ncc(C#N)c3n2)ccc1N1CC[C@H](N)C1 [Example 29, (S)-5-((4-(3-aminopyrrolidin-1-yl)-3-((methylsulfonyl)methyl)phenyl)amino)-7-(cyclopropylamino)pyrazolo[1,5-a]pyrimidine-3-carbonitrile mono trifluoroacetic acid salt] | < 2.5
CN(C)c1ccc(Nc2cc(NC3CC3)n3ncc(C#N)c3n2)cc1CS(C)(=O)=O [Example 34, 7-(Cyclopropylamino)-5-((4-(dimethylamino)-3-((methylsulfonyl)methyl)phenyl)amino)pyrazolo[1,5-a]pyrimidine-3-carbonitrile] | < 2.5

Second part, the compound after the results:

Ki [nM] | Compound
2.5 to 10 | CC(N)c1ccc(Nc2cc(NC3CC3)n3ncc(C#N)c3n2)cc1C[S+](C)[O-] (racemic) [Example 58, (±)-5-((4-((R,S)-1-Aminoethyl)-3-((methylsulfinyl)methyl)phenyl)amino)-7-(cyclopropylamino)pyrazolo[1,5-a]pyrimidine-3-carbonitrile mono trifluoroacetic acid salt]
2.5 to 10 | C[S+]([O-])Cc1cc(Nc2cc(NC3CC3)n3ncc(C#N)c3n2)ccc1C1(N)CC1 (racemic) [Example 59, (±)-5-((4-(1-Aminocyclopropyl)-3-((methylsulfinyl)methyl)phenyl)amino)-7-(cyclopropylamino)pyrazolo[1,5-a]pyrimidine-3-carbonitrile mono trifluoroacetic acid salt]
< 2.5 | C/C(=C\CN)c1ccc(Nc2cc(NC3CC3)n3ncc(C#N)c3n2)cc1C[S+](C)[O-] (racemic) [Example 60, (±)-(E)-5-((4-(4-aminobut-2-en-2-yl)-3-((methylsulfinyl)methyl)phenyl)amino)-7-(cyclopropylamino)pyrazolo[1,5-a]pyrimidine-3-carbonitrile mono trifluoroacetic acid salt]
2.5 to 10 | C[S+]([O-])Cc1cc(Nc2cc(NC3CC3)n3ncc(C#N)c3n2)ccc1C1=CCNC1 (racemic) [Example 62, (±)-7-(Cyclopropylamino)-5-((4-(2,5-dihydro-1H-pyrrol-3-yl)-3-((methylsulfinyl)methyl)phenyl)amino)pyrazolo[1,5-a]pyrimidine-3-carbonitrile mono trifluoroacetic acid salt]
2.5 to 10 | C[S+]([O-])Cc1cc(Nc2cc(NC3CC3)n3ncc(C#N)c3n2)ccc1C1CCNC1 (racemic) [Example 63, (±)-7-(Cyclopropylamino)-5-((3-((methylsulfinyl)methyl)-4-((R,S)-pyrrolidin-3-yl)phenyl)amino)pyrazolo[1,5-a]pyrimidine-3-carbonitrile mono trifluoroacetic acid salt]
2.5 to 10 | CC(CCN)c1ccc(Nc2cc(NC3CC3)n3ncc(C#N)c3n2)cc1C[S+](C)[O-] (racemic) [Example 64, (±)-5-((4-(R,S)-4-Aminobutan-2-yl)-3-((methylsulfinyl)methyl)phenyl)amino)-7-(cyclopropylamino)pyrazolo[1,5-a]pyrimidine-3-carbonitrile mono trifluoroacetic acid salt]
< 2.5 | CN(CC1(N)CC1)c1ccc(Nc2cc(NC3CC3)n3ncc(C#N)c3n2)cc1C[S+](C)[O-] (racemic) [Example 65, (±)-5-((4-(((1-Aminocyclopropyl)methyl)(methyl)amino)-3-((methylsulfinyl)methyl)phenyl)amino)-7-(cyclopropylamino)pyrazolo[1,5-a]pyrimidine-3-carbonitrile mono trifluoroacetic acid salt]
< 2.5 | CN(CC(C)(C)N)c1ccc(Nc2cc(NC3CC3)n3ncc(C#N)c3n2)cc1C[S+](C)[O-] (racemic) [Example 67, (±)-5-((4-((2-Amino-2-methylpropyl)(methyl)amino)-3-((methylsulfinyl)methyl)phenyl)amino)-7-(cyclopropylamino)pyrazolo[1,5-a]pyrimidine-3-carbonitrile mono trifluoroacetic acid salt]
2.5 to 10 | C[S@@+]([O-])Cc1cc(Nc2cc(NC3CC3)n3ncc(C#N)c3n2)ccc1Cl [Example 4, (R)(−)-5-((4-Chloro-3-((methylsulfinyl)methyl)phenyl)amino)-7-(cyclopropylamino)pyrazolo[1,5-a]pyrimidine-3-carbonitrile]
< 2.5 | C[S+]([O-])Cc1cc(Nc2cc(NC3CC3)n3ncc(C#N)c3n2)ccc1N1CC[C@@H](N)C1 (stereo partly drawn) [Example 22, 5-((4-((R)-3-Aminopyrrolidin-1-yl)-3-(((R,S)-methylsulfinyl)methyl)phenyl)amino)-7-(cyclopropylamino)pyrazolo[1,5-a]pyrimidine-3-carbonitrile mono trifluoroacetic acid salt]
< 2.5 | C[S+]([O-])Cc1cc(Nc2cc(NC3CC3)n3ncc(C#N)c3n2)ccc1N1CC[C@H](N)C1 (stereo partly drawn) [Example 23, 5-((4-((S)-3-Aminopyrrolidin-1-yl)-3-(((R,S)-methylsulfinyl)methyl)phenyl)amino)-7-(cyclopropylamino)pyrazolo[1,5-a]pyrimidine-3-carbonitrile mono trifluoroacetic acid salt]
< 2.5 | C[S+]([O-])Cc1cc(Nc2cc(NC3CC3)n3ncc(C#N)c3n2)ccc1N1CCC[C@@H](N)C1 (stereo partly drawn) [Example 24, 5-((4-((R)-3-Aminopiperidin-1-yl)-3-(((R,S)-methylsulfinyl)methyl)phenyl)amino)-7-(cyclopropylamino)pyrazolo[1,5-a]pyrimidine-3-carbonitrile mono trifluoroacetic acid salt]
< 2.5 | C[S+]([O-])Cc1cc(Nc2cc(NC3CC3)n3ncc(C#N)c3n2)ccc1N1CCC[C@H](N)C1 (stereo partly drawn) [Example 25, 5-((4-((S)-3-Aminopiperidin-1-yl)-3-(((R,S)-methylsulfinyl)methyl)phenyl)amino)-7-(cyclopropylamino)pyrazolo[1,5-a]pyrimidine-3-carbonitrile mono trifluoroacetic acid salt]
